Measured values reported in patent US20240218022A1, “ANTI-VISTA MACROCYCLIC PEPTIDES AND COMPOSITIONS” (BRISTOL-MYERS SQUIBB COMPANY, priority 2022, published 2024).
Read-outs that look alike come from different tables or passages of the source. Blank lines part the entries; values can stand above or below the compound they belong to. Starred links: 1 amine or outer side, 2 acyl side, 3 side chain; linkers in the order of their positions; H or OH if unused. Positions of bridges follow the written chain, without caps; N, C: chain ends. Non-standard residues stand in square brackets, D forms with d. Residues, ends and D or L forms follow the SMILES beside them. γGlu = O=C(O)[C@H](CCC(=O)[*:2])N[*:1]; βAsp = O=C(O)[C@H](CC(=O)[*:2])N[*:1]; NMeL = CN[C@@H](CC(C)C)C(=O)O; Ahp(2) = CCCCC[C@H](N)C(=O)O; NMeNle = CCCC[C@H](NC)C(=O)O; Tle = CC(C)(C)[C@H](N)C(=O)O; NHexGly = CCCCCCNCC(=O)O; Nle = CCCC[C@H](N)C(=O)O; Aun = NCCCCCCCCCCC(=O)O; AEEA = NCCOCCOCC(=O)O

Biological target: T1, mouse VISTA (mVISTA) (Mus musculus, UniProt Q9D659)
T1 construct: expressed in transfected cells; host or cells: Human embryonic kidney 293T cells
T1 sequence (Q9D659 33-308): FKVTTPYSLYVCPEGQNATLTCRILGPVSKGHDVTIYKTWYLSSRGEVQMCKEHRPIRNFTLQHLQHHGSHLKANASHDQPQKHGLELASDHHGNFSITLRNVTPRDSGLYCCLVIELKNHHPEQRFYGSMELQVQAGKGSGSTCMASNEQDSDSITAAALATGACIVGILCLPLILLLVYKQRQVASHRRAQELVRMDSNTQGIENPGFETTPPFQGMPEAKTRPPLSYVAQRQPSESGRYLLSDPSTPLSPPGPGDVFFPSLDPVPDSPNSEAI
Test: Cell-Based Binding High-Content Assay For mVISTA (HC CBA mVISTA)
Method in brief: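 Competition of compound with a biotinylated peptide (final 2 nM, 30 min at RT) for binding to mVISTA on 293T cells, run under no-wash or wash (1 h compound preincubation then removal) formats. Readout by Alexa 647–streptavidin imaging on a high-content platform; four-parameter logistic fit gave IC50.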

[1] = cell-based binding high-content assay, read-out: HC CBA miPrISTA IC50

- IC50 (read-out: HC CBA mVISTA IC50): 28.2 nM
SMILES: CCCCCCN1CC(=O)N[C@@H](Cc2ccc(O)cc2)C(=O)N[C@@H](CC(C)C)C(=O)N[C@@H](CC(N)=O)C(=O)N[C@@H](CCCNC(=N)N)C(=O)N(C)[C@@H](CC(C)C)C(=O)N[C@@H](CCCCC)C(=O)N2CCC[C@H]2C(=O)N[C@@H](C(C)(C)C)C(=O)N[C@@H](CC(=O)O)C(=O)N[C@H](C(=O)NCCOCCOCC(=O)N[C@@H](CCC(=O)NCCOCCOCC(=O)NCCCCCCCCCCC(=O)O)C(=O)O)CSCC(=O)N[C@@H](Cc2ccccc2)C(=O)N[C@@H](Cc2c[nH]c3ccccc23)C(=O)N[C@@H](CC(=O)O)C1=O [compound 2269] ({CH2CO}-FWD[NHexGly]YLNR[NMeL][Ahp(2)]P[Tle]DC[AEEA][γGlu][AEEA][Aun]-OH; thioether N-14)

SMILES: CCCCCCN1CC(=O)N[C@@H](Cc2ccc(O)cc2)C(=O)N[C@@H](CCCC)C(=O)N[C@@H](CC(N)=O)C(=O)N[C@@H](CCCNC(=N)N)C(=O)N(C)[C@@H](CCCC)C(=O)N[C@@H](CCCCC)C(=O)N(C)[C@@H](CCCC)C(=O)N[C@@H](C(C)(C)C)C(=O)N[C@@H](CO)C(=O)N[C@H](C(=O)N[C@@H](CC(=O)NCCOCCOCC(=O)NCCCCCCCCCCC(=O)O)C(=O)O)CSCC(=O)N[C@@H](Cc2ccccc2)C(=O)N[C@@H](Cc2c[nH]c3ccccc23)C(=O)N[C@@H](CC(=O)O)C1=O [Example 2173] ({CH2CO}-FWD[NHexGly]Y[Nle]NR[NMeNle][Ahp(2)][NMeNle][Tle]SC[βAsp][AEEA][Aun]-OH; thioether N-14)
- IC50 (read-out: HC CBA mVISTA IC50): 35.1 nM

- IC50 [1]: 17.9 nM
SMILES: CCCCCCN1CC(=O)N[C@@H](Cc2ccc(O)cc2)C(=O)N[C@@H](CCCC)C(=O)NCC(=O)N[C@@H](CCCNC(N)=O)C(=O)N[C@@H](CC(C)C)C(=O)N[C@@H](CCCCC)C(=O)N2CCC[C@H]2C(=O)N[C@@H](C(C)C)C(=O)N[C@@H](CC(=O)O)C(=O)N[C@H](C(=O)NCCOCCOCC(=O)N[C@@H](CC(=O)O)C(=O)NCCOCCOCC(=O)NCCCCCCCCCCC(=O)O)CSCC(=O)N[C@@H](Cc2cccc(C)c2)C(=O)N[C@@H](Cc2ccc(O)cc2)C(=O)N[C@@H](CC(=O)O)C1=O (stereo in doubt) [compound 2309]

- IC50 [1]: 21.3 nM
SMILES: CCCCCCN1CC(=O)N[C@@H](Cc2ccc(O)cc2)C(=O)N[C@@H](CCCC)C(=O)N[C@@H](CC(N)=O)C(=O)N[C@@H](CCCNC(=N)N)C(=O)N(C)[C@@H](CCCC)C(=O)N[C@@H](CCCCC)C(=O)N2CCC[C@H]2C(=O)N[C@@H](C(C)C)C(=O)N[C@@H](CO)C(=O)N[C@H](C(=O)NCCOCCOCC(=O)N[C@@H](CC(=O)O)C(=O)NCCOCCOCC(=O)NCCCCCCCCCCC(=O)O)CSCC(=O)N[C@@H](Cc2ccccc2)C(=O)N[C@@H](Cc2c[nH]c3ccccc23)C(=O)N[C@@H](CC(=O)O)C1=O (stereo in doubt) [compound 2318]

- IC50 [1]: 25.3 nM
SMILES: CCCCCCN1CC(=O)N[C@@H](Cc2ccc(O)cc2)C(=O)N[C@@H](CCCC)C(=O)N[C@@H](CC(N)=O)C(=O)N[C@@H](CCCNC(=N)N)C(=O)N[C@@H](CC(C)C)C(=O)N[C@@H](CCCCC)C(=O)N2CCC[C@H]2C(=O)N[C@@H](C(C)C)C(=O)N[C@@H](CC(=O)O)C(=O)N[C@H](C(=O)NCCOCCOCC(=O)N[C@@H](CC(=O)O)C(=O)NCCOCCOCC(=O)NCCCCCCCCCCC(=O)O)CSCC(=O)N[C@@H](Cc2cccc(C)c2)C(=O)N[C@@H](Cc2c[nH]c3ccccc23)C(=O)N[C@@H](CC(=O)O)C1=O (stereo in doubt) [compound 2286]

- IC50 (293T cells expressing mouse VISTA, competition with biotinylated peptide (2 nM), read-out: HC CBA mVISTA IC50): 18 nM
SMILES: CCCCCCN1CC(=O)N[C@@H](Cc2ccc(O)cc2)C(=O)N[C@@H](CC(C)C)C(=O)NCC(=O)N[C@@H](CCCNC(=N)N)C(=O)N[C@@H](Cc2ccc(O)cc2)C(=O)N[C@@H](CCCCC)C(=O)N2CCC[C@H]2C(=O)N[C@@H](C(C)C)C(=O)N[C@@H](C(C)C)C(=O)N[C@H](C(=O)NCC(=O)O)CSCC(=O)N[C@@H](Cc2ccccc2)C(=O)N[C@@H](Cc2ccc(O)cc2)C(=O)N[C@@H](CC(=O)O)C1=O [Example 1097] ({CH2CO}-FYD[NHexGly]YLGRY[Ahp(2)]PVVCG-OH; thioether N-14)

- IC50 (cell-based binding high-content assay, mVISTA, read-out: HC CBA miPr ISTA IC50): 34.5 nM
SMILES: CCCCCCN1CC(=O)N[C@@H](Cc2ccc(O)cc2)C(=O)N[C@@H](CCCCN)C(=O)N[C@@H](CC(N)=O)C(=O)N[C@@H](CCCNC(=N)N)C(=O)N(C)[C@@H](CCCC)C(=O)N[C@@H](CCCCC)C(=O)N2CCC[C@H]2C(=O)N[C@@H](C(C)(C)C)C(=O)N[C@@H](CO)C(=O)N[C@H](C(=O)N[C@@H](CC(=O)NCCOCCOCC(=O)N[C@@H](CC(=O)O)C(=O)NCCOCCOCC(=O)NCCCCCCCCCCC(=O)O)C(=O)O)CSCC(=O)N[C@@H](Cc2ccccc2)C(=O)N[C@@H](Cc2ccc(O)cc2)C(=O)N[C@@H](CC(=O)O)C1=O [compound 2046] ({CH2CO}-FYD[NHexGly]YKNR[NMeNle][Ahp(2)]P[Tle]SC[βAsp][AEEA]D[AEEA][Aun]-OH; thioether N-14)
